# Reference: PubChem BioAssay (NCI)
#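 Results reflect a 48-hour exposure of cells in 96-well plates to compound at five concentrations. At the TGI there is no net growth.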
# Assays:
# Experiment in all cases: DTP human tumour cell line panel, 48 h
# 786-0 renal = tested on: 786-0 renal
# A498 renal = tested on: A498 renal
# A549 NSCLC = tested on: A549 NSCLC
# ACHN renal = tested on: ACHN renal
# BT-549 breast = tested on: BT-549 breast
# CAKI-1 renal = tested on: CAKI-1 renal
# COLO 205 colon = tested on: COLO 205 colon
# DU-145 prostate = tested on: DU-145 prostate
# EKVX NSCLC = tested on: EKVX NSCLC
# HCC-2998 colon = tested on: HCC-2998 colon
# HCT-116 colon = tested on: HCT-116 colon
# HCT-15 colon = tested on: HCT-15 colon
# HOP-62 NSCLC = tested on: HOP-62 NSCLC
# HOP-92 NSCLC = tested on: HOP-92 NSCLC
# HS 578T breast = tested on: HS 578T breast
# HT29 colon = tested on: HT29 colon
# IGROV1 ovarian = tested on: IGROV1 ovarian
# K-562 leukemia = tested on: K-562 leukemia
# KM12 colon = tested on: KM12 colon
# M14 melanoma = tested on: M14 melanoma
# MALME-3M melanoma = tested on: MALME-3M melanoma
# MCF7 breast = tested on: MCF7 breast
# MDA-MB-231 breast = tested on: MDA-MB-231 breast
# MDA-MB-435 = tested on: MDA-MB-435
# MDA-N = tested on: MDA-N
# MOLT-4 leukemia = tested on: MOLT-4 leukemia
# NCI-H23 lung = tested on: NCI-H23 lung
# NCI-H460 lung = tested on: NCI-H460 lung
# NCI-H522 lung = tested on: NCI-H522 lung
# NCI/ADR-RES ovarian = tested on: NCI/ADR-RES ovarian
# OVCAR-3 ovarian = tested on: OVCAR-3 ovarian
# OVCAR-4 ovarian = tested on: OVCAR-4 ovarian
# OVCAR-5 ovarian = tested on: OVCAR-5 ovarian
# OVCAR-8 ovarian = tested on: OVCAR-8 ovarian
# PC-3 prostate = tested on: PC-3 prostate
# RPMI-8226 leukemia = tested on: RPMI-8226 leukemia
# RXF 393 renal = tested on: RXF 393 renal
# SF-268 CNS = tested on: SF-268 CNS
# SF-295 CNS = tested on: SF-295 CNS
# SK-MEL-2 melanoma = tested on: SK-MEL-2 melanoma
# SK-MEL-28 melanoma = tested on: SK-MEL-28 melanoma
# SK-MEL-5 melanoma = tested on: SK-MEL-5 melanoma
# SK-OV-3 ovarian = tested on: SK-OV-3 ovarian
# SNB-19 CNS = tested on: SNB-19 CNS
# SNB-75 CNS = tested on: SNB-75 CNS
# SW-620 colon = tested on: SW-620 colon
# T-47D breast = tested on: T-47D breast
# TK-10 renal = tested on: TK-10 renal
# U251 CNS = tested on: U251 CNS
# UACC-257 melanoma = tested on: UACC-257 melanoma
# UACC-62 melanoma = tested on: UACC-62 melanoma
# UO-31 renal = tested on: UO-31 renal
# CCRF-CEM leukemia = tested on: CCRF-CEM leukemia
# NCI-H226 lung = tested on: NCI-H226 lung
# SF-539 CNS = tested on: SF-539 CNS
# SN12C renal = tested on: SN12C renal
smiles,measurement,setting,value
C[C@@H]1OC(=O)C[C@H]2CC(=O)N(CCC3CN(C(=O)c4ccccc4)c4ccccc43)C[C@@H]21 (stereo partly specified),TGI,786-0 renal,> 100 µM
same,TGI,A498 renal,> 100 µM
same,TGI,A549 NSCLC,> 100 µM
same,TGI,ACHN renal,> 100 µM
same,TGI,BT-549 breast,> 100 µM
same,TGI,CAKI-1 renal,> 100 µM
same,TGI,COLO 205 colon,> 100 µM
same,TGI,DU-145 prostate,> 100 µM
same,TGI,EKVX NSCLC,> 100 µM
same,TGI,HCC-2998 colon,> 100 µM
same,TGI,HCT-116 colon,> 100 µM
same,TGI,HCT-15 colon,> 100 µM
same,TGI,HOP-62 NSCLC,> 100 µM
same,TGI,HOP-92 NSCLC,> 100 µM
same,TGI,HS 578T breast,> 100 µM
same,TGI,HT29 colon,> 100 µM
same,TGI,IGROV1 ovarian,> 100 µM
same,TGI,K-562 leukemia,> 100 µM
same,TGI,KM12 colon,> 100 µM
same,TGI,M14 melanoma,> 100 µM
same,TGI,MALME-3M melanoma,> 100 µM
same,TGI,MCF7 breast,> 100 µM
same,TGI,MDA-MB-231 breast,> 100 µM
same,TGI,MDA-MB-435,> 100 µM
same,TGI,MDA-N,> 100 µM
same,TGI,MOLT-4 leukemia,> 100 µM
same,TGI,NCI-H23 lung,> 100 µM
same,TGI,NCI-H460 lung,> 100 µM
same,TGI,NCI-H522 lung,> 100 µM
same,TGI,NCI/ADR-RES ovarian,> 100 µM
same,TGI,OVCAR-3 ovarian,> 100 µM
same,TGI,OVCAR-4 ovarian,> 100 µM
same,TGI,OVCAR-5 ovarian,> 100 µM
same,TGI,OVCAR-8 ovarian,> 100 µM
same,TGI,PC-3 prostate,> 100 µM
same,TGI,RPMI-8226 leukemia,> 100 µM
same,TGI,RXF 393 renal,> 100 µM
same,TGI,SF-268 CNS,> 100 µM
same,TGI,SF-295 CNS,> 100 µM
same,TGI,SK-MEL-2 melanoma,> 100 µM
same,TGI,SK-MEL-28 melanoma,> 100 µM
same,TGI,SK-MEL-5 melanoma,> 100 µM
same,TGI,SK-OV-3 ovarian,> 100 µM
same,TGI,SNB-19 CNS,> 100 µM
same,TGI,SNB-75 CNS,> 100 µM
same,TGI,SW-620 colon,> 100 µM
same,TGI,T-47D breast,> 100 µM
same,TGI,TK-10 renal,> 100 µM
same,TGI,U251 CNS,> 100 µM
same,TGI,UACC-257 melanoma,> 100 µM
same,TGI,UACC-62 melanoma,> 100 µM
same,TGI,UO-31 renal,> 100 µM
COc1ccc(-n2cnc3c(N)nc(N)nc32)cc1,TGI,786-0 renal,> 100 µM
same,TGI,A498 renal,> 100 µM
same,TGI,A549 NSCLC,> 100 µM
same,TGI,ACHN renal,> 100 µM
same,TGI,BT-549 breast,> 100 µM
same,TGI,CAKI-1 renal,> 100 µM
same,TGI,CCRF-CEM leukemia,> 100 µM
same,TGI,COLO 205 colon,> 100 µM
same,TGI,DU-145 prostate,> 100 µM
same,TGI,EKVX NSCLC,> 100 µM
same,TGI,HCC-2998 colon,> 100 µM
same,TGI,HCT-116 colon,> 100 µM
same,TGI,HCT-15 colon,> 100 µM
same,TGI,HOP-62 NSCLC,> 100 µM
same,TGI,HOP-92 NSCLC,> 100 µM
same,TGI,HS 578T breast,87 µM
same,TGI,HT29 colon,> 100 µM
same,TGI,IGROV1 ovarian,> 100 µM
same,TGI,KM12 colon,> 100 µM
same,TGI,M14 melanoma,> 100 µM
same,TGI,MALME-3M melanoma,> 100 µM
same,TGI,MCF7 breast,> 100 µM
same,TGI,MDA-MB-231 breast,> 100 µM
same,TGI,MDA-MB-435,> 100 µM
same,TGI,MDA-N,> 100 µM
same,TGI,MOLT-4 leukemia,> 100 µM
same,TGI,NCI-H226 lung,> 100 µM
same,TGI,NCI-H23 lung,> 100 µM
same,TGI,NCI-H522 lung,> 100 µM
same,TGI,NCI/ADR-RES ovarian,> 100 µM
same,TGI,OVCAR-3 ovarian,> 100 µM
same,TGI,OVCAR-4 ovarian,> 100 µM
same,TGI,OVCAR-5 ovarian,> 100 µM
same,TGI,OVCAR-8 ovarian,> 100 µM
same,TGI,PC-3 prostate,> 100 µM
same,TGI,RPMI-8226 leukemia,> 100 µM
same,TGI,RXF 393 renal,> 100 µM
same,TGI,SF-268 CNS,> 100 µM
same,TGI,SF-295 CNS,> 100 µM
same,TGI,SF-539 CNS,> 100 µM
same,TGI,SK-MEL-2 melanoma,> 100 µM
same,TGI,SK-MEL-28 melanoma,> 100 µM
same,TGI,SK-MEL-5 melanoma,> 100 µM
same,TGI,SK-OV-3 ovarian,> 100 µM
same,TGI,SN12C renal,> 100 µM
same,TGI,SNB-19 CNS,> 100 µM
same,TGI,SNB-75 CNS,77.9 µM
same,TGI,SW-620 colon,> 100 µM
same,TGI,T-47D breast,> 100 µM
same,TGI,TK-10 renal,> 100 µM
same,TGI,U251 CNS,> 100 µM
same,TGI,UACC-257 melanoma,> 100 µM
same,TGI,UACC-62 melanoma,> 100 µM
same,TGI,UO-31 renal,> 100 µM
